Assay results reported in patent US9561231B2 (AbbVie Inc., priority 2012, dated 2017).

Experiments:
[1] = system: breast cancer cell line MX-1; test: MX-1 cell line proliferation assay (3-day); type: cell-based; conditions: Homo sapiens, MX1; MX-1 cells, 72 h incubation, Cell Titer Glo; read-out: Cellular proliferation: EC50
Summary of the method: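 MX-1 cells in RPMI/10% FBS, plated 5000/well overnight, then exposed to compound at final 3 to 0.0001 μM (3-fold series) for 3 days at 37° C. Cell Titer Glo luminescence normalized to DMSO-treated cells; EC50 from sigmoidal curve fit.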

[2] = biological target: T1, second (BD2: amino acids E352-E168) bromodomain of BRD4 (Homo sapiens, UniProt O60885); test: TR-FRET bromodomain binding assay, BRD4 BD2; conditions: TR-FRET assay protocol (A-G, compound concentration range); Ki calculated from IC50, probe Kd and probe concentration; read-out: TR-FRET Binding Ki: BRD4 (BDII_E352-M457)
T1 construct: protocol
Summary of the method: (§1)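 Compounds were serially diluted in DMSO, diluted into pH 6.0 phosphate buffer with NaCl, EDTA, Triton X-100 and DTT, then combined with His-tagged bromodomain and an Alexa647-labeled BET-inhibitor probe. TR-FRET was read, percent inhibition fitted to give IC50, and Ki derived using probe Kd.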

[3] = biological target: T2, first (BD1: amino acids K57-E168) bromodomain of BRD4 (Homo sapiens, UniProt O60885); test: TR-FRET bromodomain binding assay, BRD4 BD1; conditions: TR-FRET assay protocol (A-G, compound concentration range); Ki calculated from IC50, probe Kd and probe concentration; read-out: TR-FRET Binding Ki: BRD4 (BDI_K57-E168)
T2 construct: His-tagged first (BD1: amino acids K57-E168)
Summary of the method: as §1

Row | SMILES | EC50 [1] [nM] | Ki [2] [nM] | Ki [3] [nM]
1 | COC(=O)CS(=O)(=O)Nc1ccc(Oc2ccccc2)c(-c2ccc(=O)n(C)c2)c1 [Example 225, methyl {[3-(1-methyl-6-oxo-1,6-dihydropyridin-3-yl)-4-phenoxyphenyl]sulfamoyl}acetate] | 10000 | 107 | 152
2 | Cn1cc(-c2cc(NS(=O)(=O)CC(=O)O)ccc2Oc2ccccc2)ccc1=O [Example 226, {[3-(1-methyl-6-oxo-1,6-dihydropyridin-3-yl)-4-phenoxyphenyl]sulfamoyl}acetic acid] | 10000 | 1130 | 271
3 | Cn1cnc(S(=O)(=O)Nc2ccc(Oc3ccccc3)c(-c3ccc(=O)n(C)c3)c2)c1 [Example 227, 1-methyl-N-[3-(1-methyl-6-oxo-1,6-dihydropyridin-3-yl)-4-phenoxyphenyl]-1H-imidazole-4-sulfonamide] | > 3000 | 420 | 157
4 | Cn1cc(-c2cc(NS(=O)(=O)c3c[nH]cn3)ccc2Oc2ccccc2)ccc1=O [Example 228, N-[3-(1-methyl-6-oxo-1,6-dihydropyridin-3-yl)-4-phenoxyphenyl]-1H-imidazole-4-sulfonamide] | > 3000 | 154 | 142
5 | Cn1cc(-c2cc(NS(C)(=O)=O)ccc2Oc2cccnc2)ccc1=O [Example 234, N-[3-(1-methyl-6-oxo-1,6-dihydropyridin-3-yl)-4-(pyridin-3-yloxy)phenyl]methanesulfonamide] | 1290 | 216 | 21.3
6 | Cn1cc(-c2cc(NS(C)(=O)=O)ccc2Oc2ccccc2C#N)ccc1=O [Example 237, N-[4-(2-cyanophenoxy)-3-(1-methyl-6-oxo-1,6-dihydropyridin-3-yl)phenyl]methanesulfonamide] | 1380 | 227 | 16.2
7 | Cn1cc(-c2cc(NS(C)(=O)=O)ccc2OC2CCOC2)ccc1=O (stereo not drawn) [Example 249, N-[3-(1-methyl-6-oxo-1,6-dihydropyridin-3-yl)-4-(tetrahydrofuran-3-yloxy)phenyl]methanesulfonamide] | > 3000 | 701 | 86.2
8 | Cn1cc(-c2cc(NS(C)(=O)=O)ccc2OCC2CCOCC2)ccc1=O [Example 250, N-[3-(1-methyl-6-oxo-1,6-dihydropyridin-3-yl)-4-(tetrahydro-2H-pyran-4-ylmethoxy)phenyl]methanesulfonamide] | > 3000 | 12500 | 143
9 | Cn1cc(-c2cc(NC(=O)c3ccc[nH]3)ccc2Oc2ccccc2)ccc1=O [Example 251, N-[3-(1-methyl-6-oxo-1,6-dihydropyridin-3-yl)-4-phenoxyphenyl]-1H-pyrrole-2-carboxamide] | 1100 | 260 | 197
10 | Cn1cc(-c2cc(NC(=O)CNC(=O)OC(C)(C)C)ccc2Oc2ccccc2)ccc1=O [Example 252, tert-butyl (2-{[3-(1-methyl-6-oxo-1,6-dihydropyridin-3-yl)-4-phenoxyphenyl]amino}-2-oxoethyl)carbamate] | > 3000 | 695 | 297
11 | Cn1cc(-c2cc(NC(=O)CN)ccc2Oc2ccccc2)ccc1=O [Example 253, N-[3-(1-methyl-6-oxo-1,6-dihydropyridin-3-yl)-4-phenoxyphenyl]glycinamide] | > 3000 | 3290 | 942
12 | CCNS(=O)(=O)c1ccc(Oc2ccccc2)c(-c2ccc(=O)n(C)c2)c1 [Example 255, N-ethyl-3-(1-methyl-6-oxo-1,6-dihydropyridin-3-yl)-4-phenoxybenzenesulfonamide] | > 3000 | 142 | 635
13 | Cn1cc(-c2cc(S(N)(=O)=O)ccc2Oc2ccccc2)ccc1=O [Example 256, 3-(1-methyl-6-oxo-1,6-dihydropyridin-3-yl)-4-phenoxybenzenesulfonamide] | 1060 | 93.6 | 219
14 | COc1cc(=O)n(C)cc1-c1ccccc1Oc1ccccc1 [Example 258, 4-methoxy-1-methyl-5-(2-phenoxyphenyl)pyridin-2(1H)-one] | 1510 | 382 | 730
15 | Cc1cc(-c2ccccc2Oc2ccccc2)c[nH]c1=O [Example 260, 3-methyl-5-(2-phenoxyphenyl)pyridin-2(1H)-one] | 2350 | 406 | 216

Stronger by EC50 [1], values ahead:

Row | EC50 [1] [nM] | Ki [2] [nM] | Ki [3] [nM] | SMILES
16 | 507 | 21.8 | 31.8 | Cn1cc(-c2cc(NS(=O)(=O)CC(F)(F)F)ccc2Oc2ccccc2)ccc1=O [Example 229, 2,2,2-trifluoro-N-[3-(1-methyl-6-oxo-1,6-dihydropyridin-3-yl)-4-phenoxyphenyl]ethanesulfonamide]
17 | 395 | 48 | 56 | CNS(=O)(=O)Nc1ccc(Oc2ccccc2)c(-c2ccc(=O)n(C)c2)c1 [Example 230, N-methyl-N′-[3-(1-methyl-6-oxo-1,6-dihydropyridin-3-yl)-4-phenoxyphenyl]sulfuric diamide]
18 | 911 | 539 | 44.6 | Cn1cc(-c2cc(NS(C)(=O)=O)ccc2Oc2ccc(C(F)(F)F)cc2)ccc1=O [Example 231, N-{3-(1-methyl-6-oxo-1,6-dihydropyridin-3-yl)-4-[4-(trifluoromethyl)phenoxy]phenyl}methanesulfonamide]
19 | 357 | 101 | 27.8 | Cn1cc(-c2cc(NS(C)(=O)=O)ccc2Oc2ccc(F)cc2)ccc1=O [Example 232, N-[4-(4-fluorophenoxy)-3-(1-methyl-6-oxo-1,6-dihydropyridin-3-yl)phenyl]methanesulfonamide]
20 | 501 | 81.6 | 14.2 | Cn1cc(-c2cc(NS(C)(=O)=O)ccc2Oc2ccccc2C(F)(F)F)ccc1=O [Example 236, N-{3-(1-methyl-6-oxo-1,6-dihydropyridin-3-yl)-4-[2-(trifluoromethyl)phenoxy]phenyl}methanesulfonamide]
21 | 643 | 49.9 | 29.2 | COc1ccccc1Oc1ccc(NS(C)(=O)=O)cc1-c1ccc(=O)n(C)c1 [Example 238, N-[4-(2-methoxyphenoxy)-3-(1-methyl-6-oxo-1,6-dihydropyridin-3-yl)phenyl]methanesulfonamide]
22 | 138 | 39.8 | 32.6 | Cn1cc(-c2cc(NS(C)(=O)=O)ccc2Oc2ccccc2F)ccc1=O [Example 239, N-[4-(2-fluorophenoxy)-3-(1-methyl-6-oxo-1,6-dihydropyridin-3-yl)phenyl]methanesulfonamide]
23 | 556 | 338 | 45 | Cn1cc(-c2cc(NS(C)(=O)=O)ccc2Oc2cc(F)cc(F)c2)ccc1=O [Example 242, N-[4-(3,5-difluorophenoxy)-3-(1-methyl-6-oxo-1,6-dihydropyridin-3-yl)phenyl]methanesulfonamide]
24 | 279 | 257 | 115 | Cn1cc(-c2cc(NS(C)(=O)=O)ccc2Oc2cccc(Cl)c2)ccc1=O [Example 243, N-[4-(3-chlorophenoxy)-3-(1-methyl-6-oxo-1,6-dihydropyridin-3-yl)phenyl]methanesulfonamide]
25 | 481 | 282 | 116 | Cn1cc(-c2cc(NS(C)(=O)=O)ccc2Oc2cccc(C(F)(F)F)c2)ccc1=O [Example 244, N-{3-(1-methyl-6-oxo-1,6-dihydropyridin-3-yl)-4-[3-(trifluoromethyl)phenoxy]phenyl}methanesulfonamide]
26 | 1010 | 439 | 78.6 | Cn1cc(-c2cc(NS(C)(=O)=O)ccc2Oc2cccc(C#N)c2)ccc1=O [Example 245, N-[4-(3-cyanophenoxy)-3-(1-methyl-6-oxo-1,6-dihydropyridin-3-yl)phenyl]methanesulfonamide]
27 | 238 | 132 | 43.1 | Cn1cc(-c2cc(NS(C)(=O)=O)ccc2Oc2cccc(F)c2)ccc1=O [Example 246, N-[4-(3-fluorophenoxy)-3-(1-methyl-6-oxo-1,6-dihydropyridin-3-yl)phenyl]methanesulfonamide]
28 | 425 | 194 | 22.4 | Cn1cc(-c2cc(NS(C)(=O)=O)ccc2OC2CCCCC2)ccc1=O [Example 247, N-[4-(cyclohexyloxy)-3-(1-methyl-6-oxo-1,6-dihydropyridin-3-yl)phenyl]methanesulfonamide]
29 | 488 | 4570 | 156 | Cn1cc(-c2cc(NS(C)(=O)=O)ccc2OC2CCCC2)ccc1=O [Example 248, N-[4-(cyclopentyloxy)-3-(1-methyl-6-oxo-1,6-dihydropyridin-3-yl)phenyl]methanesulfonamide]
30 | 130 | 9.41 | 28.6 | COc1cc(=O)n(C)cc1-c1cc(NS(C)(=O)=O)ccc1Oc1ccccc1 [Example 259, N-[3-(4-methoxy-1-methyl-6-oxo-1,6-dihydropyridin-3-yl)-4-phenoxyphenyl]methanesulfonamide]
31 | 783 | 290 | 77.9 | CC(=O)Nc1ccc(Oc2ccccc2)c(-c2c[nH]c(=O)c(C)c2)c1 [Example 262, N-[3-(5-methyl-6-oxo-1,6-dihydropyridin-3-yl)-4-phenoxyphenyl]acetamide]
